Laboratory results published in patent US20250049781A1, “PHARMACEUTICAL COMPOSITIONS COMPRISING RPL554 IN HFA-134A FOR ADMINISTRATION BY INHALATION” (VERONA PHARMA PLC, priority 2018, published 2025).
Values joined by “and” are separate entries in the source; they are usually repeats but may differ in a detail not shown here. Identical values can stand only once.

What was measured:
Type in all cases: physicochemical
[1] = Sedimentation score of pMDI formulations containing HFA-134a, oleic acid and ethanol; parameters: key: 1 = fastest sedimentation (undesirable), 10 = slowest (acceptable)
Procedure: (§1) Samples were made by adding the required amounts of RPL554 (see Table 3) to 15 ml pressure rated clear glass vials. The propellant, HFA-134a, HFA-227ea or combinations of the two (see Table 4) was added through the valve and the samples were mixed in an ultrasonic bath for 30 seconds. The same target fill weight of 11.6 g (±0.5 g) was used for all samples. The appearance of the API particles in the propellants was assessed with regards to both the sedimentation rate and flocculation behaviour (see FIG. 1). The sedimentation rate of the formulations was visually assessed after suspension agitation by recording images of the glass vials using a high-speed camera. The suspension quality was determined by assigning a sedimentation score of from 1 to 10 based on the amount of active particles which had settled or floated in 30 seconds, with 1being the fastest to sediment/cream (i.e. undesirable) and 10 being the slowest to sediment/cream (i.e. acceptable).
In order to seek to improve the suspension characteristics the inclusion of additional excipients was investigated. In particular, formulations further comprising a surfactant (oleic acid, Ph. Eur./BP) and a co-solvent (ethanol, 100% USP-NF) were prepared.

[2] = Sedimentation score of RPL554 suspensions in HFA-134a, HFA-227ea and mixtures (visual, glass vials); parameters: key to Sedimentation score: 1 = fastest sediment/cream (undesirable), 10 = slowest (acceptable)
Procedure: as §1

[3] = RPL554 dissolved in HFA-134a/ethanol with or without oleic acid (UV/Visible); conditions: 24 hours at ambient temperature
Procedure: Samples were prepared by adding 1.5 mg of RPL554 to plain 14 mL aluminium canisters, with ethanol, oleic acid and HFA-134a. Excipients were added to the canisters to maintain an ethanol/oleic acid ratio of a 50:1 (see Table 8). Corresponding canisters were also produced containing RPL554, ethanol and HFA-134a only. The canisters were crimped with 63 μL pMDI valves, with shortened dip tubes (FIG. 3), and filled to 11.6 g with HFA-134a through the valve. The length of the dip tubes was sufficient to extend into the liquid propellant/co-solvent phase only (i.e. after the API particles had settled). The samples were placed in an ultrasonic bath for 30 seconds.
All the canisters were left for 24 hours at ambient temperature to settle and to establish dissolution equilibrium. To determine the amount of API dissolved, each canister was fired five times, in an upright position (through a cannula fitted to the valve stem) into a 10.0 cm^3 volumetric flask. The flask was made up to volume with dehydrated ethanol and the solution was analysed using UV/Visible spectroscopy (Perkin Elmer, Model Lambda 35). The concentration of RPL554 was calculated, quantitatively, against a three point standard curve.

[4] = Solubility of RPL554 in ethanol (USP/BP criteria)
Procedure: However, the observations of dissolution and recrystallisation with the lowest product strength (10 μg/actuation) prompted further investigations into the solubility of RPL554 in ethanol in the presence of oleic acid.
The original assessment was carried out using Analytical Reagent grade ethanol. […] Unexpectedly, RPL554 was therefore found to have some solubility in ethanol.

For `COc1cc2c(cc1OC)-c1c/c(=N\c3c(C)cc(C)cc3C)n(CCNC(N)=O)c(=O)n1CC2` [RPL554, 9,10-dimethoxy-2-(2,4,6-trimethylphenylimino)-3-(N-carbamoyl-2-aminoethyl)-3,4,6,7-tetrahydro-2H-pyrimido[6,1-a]isoquinolin-4-one], which Sedimentation score ([1]; 10 μg/actuation, ethanol 1% w/w, oleic acid 0.010% w/w) is on record?
Its Sedimentation score is 6.

And the Sedimentation score ([1]; 10 μg/actuation, ethanol 1% w/w, oleic acid 0.500% w/w)?
Its Sedimentation score is 1.

And the Sedimentation score ([1]; 10 μg/actuation, ethanol 5% w/w, oleic acid 0.255% w/w)?
The Sedimentation score was 6.

What about the Sedimentation score ([1]; 10 μg/actuation, ethanol 15% w/w, oleic acid 0.010% w/w) of the same molecule?
The Sedimentation score was 6.

What about the Sedimentation score ([1]; 10 μg/actuation, ethanol 15% w/w, oleic acid 0.500% w/w) of the same molecule?
Its Sedimentation score is 6.

What about the Sedimentation score ([1]; 150 μg/actuation, ethanol 1% w/w, oleic acid 0.255% w/w) of the same molecule?
Its Sedimentation score is 2.

And the Sedimentation score ([1]; 150 μg/actuation, ethanol 5% w/w, oleic acid 0.010% w/w)?
Its Sedimentation score is 4.

And the Sedimentation score ([1]; 150 μg/actuation, ethanol 5% w/w, oleic acid 0.255% w/w (six replicate samples))?
Its Sedimentation score is 5 (5×) and 4.

What about the Sedimentation score ([1]; 150 μg/actuation, ethanol 5% w/w, oleic acid 0.500% w/w) of the same molecule?
Its Sedimentation score is 4.

And the Sedimentation score ([1]; 150 μg/actuation, ethanol 15% w/w, oleic acid 0.255% w/w)?
Its Sedimentation score is 8.

And the Sedimentation score ([1]; 1000 μg/actuation, ethanol 1% w/w, oleic acid 0.010% w/w)?
The Sedimentation score was 3.

What about the Sedimentation score ([1]; 1000 μg/actuation, ethanol 1% w/w, oleic acid 0.500% w/w) of the same molecule?
Its Sedimentation score is 2.

And the Sedimentation score ([1]; 1000 μg/actuation, ethanol 5% w/w, oleic acid 0.255% w/w)?
Its Sedimentation score is 3.

And the Sedimentation score ([1]; 1000 μg/actuation, ethanol 15% w/w, oleic acid 0.010% w/w)?
Its Sedimentation score is 4.

What about the Sedimentation score ([1]; 1000 μg/actuation, ethanol 15% w/w, oleic acid 0.500% w/w) of the same molecule?
The Sedimentation score was 5.

And the Sedimentation score ([2]; 10 μg/actuation, HFA-134a 0% w/w, HFA-227ea 100% w/w)?
Its Sedimentation score is 3.

And the Sedimentation score ([2]; 10 μg/actuation, HFA-134a 25% w/w, HFA-227ea 75% w/w)?
Its Sedimentation score is 5.

What about the Sedimentation score ([2]; 10 μg/actuation, HFA-134a 50% w/w, HFA-227ea 50% w/w) of the same molecule?
Its Sedimentation score is 4.

What about the Sedimentation score ([2]; 10 μg/actuation, HFA-134a 75% w/w, HFA-227ea 25% w/w) of the same molecule?
The Sedimentation score was 6.

What about the Sedimentation score ([2]; 10 μg/actuation, HFA-134a 100% w/w, HFA-227ea 0% w/w, scale 1-10, 10 slowest) of the same molecule?
Its Sedimentation score is 6.

And the Sedimentation score ([2]; 50 μg/actuation, HFA-134a 0% w/w, HFA-227ea 100% w/w)?
The Sedimentation score was 3.

And the Sedimentation score ([2]; 50 μg/actuation, HFA-134a 25% w/w, HFA-227ea 75% w/w)?
Its Sedimentation score is 4.

What about the Sedimentation score ([2]; 50 μg/actuation, HFA-134a 50% w/w, HFA-227ea 50% w/w) of the same molecule?
The Sedimentation score was 3.

And the Sedimentation score ([2]; 50 μg/actuation, HFA-134a 75% w/w, HFA-227ea 25% w/w)?
Its Sedimentation score is 6.

What about the Sedimentation score ([2]; 50 μg/actuation, HFA-134a 100% w/w, HFA-227ea 0% w/w) of the same molecule?
The Sedimentation score was 6.

And the Sedimentation score ([2]; 150 μg/actuation, HFA-134a 0% w/w, HFA-227ea 100% w/w)?
Its Sedimentation score is 3.

And the Sedimentation score ([2]; 150 μg/actuation, HFA-134a 25% w/w, HFA-227ea 75% w/w)?
The Sedimentation score was 4.

What about the Sedimentation score ([2]; 150 μg/actuation, HFA-134a 50% w/w, HFA-227ea 50% w/w) of the same molecule?
Its Sedimentation score is 3.

And the Sedimentation score ([2]; 150 μg/actuation, HFA-134a 75% w/w, HFA-227ea 25% w/w)?
The Sedimentation score was 3.

And the Sedimentation score ([2]; 150 μg/actuation, HFA-134a 100% w/w, HFA-227ea 0% w/w)?
The Sedimentation score was 5.

And the Sedimentation score ([2]; 500 μg/actuation, HFA-134a 0% w/w, HFA-227ea 100% w/w)?
The Sedimentation score was 2.

What about the Sedimentation score ([2]; 500 μg/actuation, HFA-134a 25% w/w, HFA-227ea 75% w/w) of the same molecule?
Its Sedimentation score is 3.

And the Sedimentation score ([2]; 500 μg/actuation, HFA-134a 50% w/w, HFA-227ea 50% w/w)?
The Sedimentation score was 2.

What about the Sedimentation score ([2]; 500 μg/actuation, HFA-134a 75% w/w, HFA-227ea 25% w/w) of the same molecule?
The Sedimentation score was 3.

What about the Sedimentation score ([2]; 500 μg/actuation, HFA-134a 100% w/w, HFA-227ea 0% w/w) of the same molecule?
Its Sedimentation score is 3.

What about the Sedimentation score ([2]; 1000 μg/actuation, HFA-134a 0% w/w, HFA-227ea 100% w/w) of the same molecule?
Its Sedimentation score is 2.

What about the Sedimentation score ([2]; 1000 μg/actuation, HFA-134a 25% w/w, HFA-227ea 75% w/w) of the same molecule?
Its Sedimentation score is 4.

What about the Sedimentation score ([2]; 1000 μg/actuation, HFA-134a 50% w/w, HFA-227ea 50% w/w) of the same molecule?
Its Sedimentation score is 3.

What about the Sedimentation score ([2]; 1000 μg/actuation, HFA-134a 75% w/w, HFA-227ea 25% w/w) of the same molecule?
Its Sedimentation score is 4.

What about the Sedimentation score ([2]; 1000 μg/actuation, HFA-134a 100% w/w, HFA-227ea 0% w/w) of the same molecule?
Its Sedimentation score is 4.

What about the “Suspension behaviour on and after shaking” value (from here on “Suspension behaviour”) ([2]; formulation in HFA-134a) of the same molecule?
Its value is “readily suspended on shaking, with rapid flocculation and gradual sedimentation observed after shaking was stopped”.

What about the “Suspension behaviour” value ([2]; formulation in HFA-227ea) of the same molecule?
The value was “creaming was observed after the cessation of shaking”.

What about the “Suspension behaviour” value ([2]; formulation in blend of HFA-134a/HFA-227ea (50/50)) of the same molecule?
Its value is “creaming was observed after the cessation of shaking”.

And the “Amount of dissolved RPL554 versus ethanol concentration” value ([3]; HFA-134a with 1-12% w/w ethanol)?
Its value is “increased with increasing ethanol concentration”.

What about the “Effect of oleic acid on the solubility of RPL554” value ([3]; HFA-134a/ethanol, ethanol/oleic acid ratio 50:1) of the same molecule?
Its value is “no effect”.

And the “Solubility classification according to the USP/BP criteria” value ([4]; Analytical Reagent grade ethanol, previous (original) assessment)?
Its value is “practically insoluble”.

And the “Solubility classification according to the USP/BP criteria” value ([4]; dehydrated alcohol (100% USP-NF ethanol), reassessment)?
The value was “very slightly soluble”.
